# Source: PubChem BioAssay AID2060487 (Molecular Pharmacology Branch, DTP, NCI, 2025)
# Tested on: 997537-175-T-J1-PDC complex spheroid viability
# Assay: Anticancer human tumor 997537-175-T-J1-PDC patient-derived colon adenocarcinoma cell line growth inhibition [GQUAD]
# Conditions: for IC50: curve of first compound; for viability, T/C: stronger effect = lower value
# In short: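 Tumor cells were grown as complex spheroids with HUVEC endothelial cells and mesenchymal stem cells as stroma. G-quadruplex stabilizers were combined with targeted agents over half-log dilutions from near the clinical Cmax, or from 10 microM.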
# [1] = second compound 0.0316 µM, first compound 0.0316 µM
# [2] = second compound 0.0316 µM, first compound 0.1 µM
# [3] = second compound 0.0316 µM, first compound 0.316 µM
# [4] = second compound 0.0316 µM, first compound 1 µM
# [5] = second compound 0.0316 µM, first compound 3.16 µM
# [6] = second compound 0.0316 µM, first compound 10 µM
# [7] = second compound 0.1 µM, first compound 0.0316 µM
# [8] = second compound 0.1 µM, first compound 0.1 µM
# [9] = second compound 0.1 µM, first compound 0.316 µM
# [10] = second compound 0.1 µM, first compound 1 µM
# [11] = second compound 0.1 µM, first compound 3.16 µM
# [12] = second compound 0.1 µM, first compound 10 µM
# [13] = second compound 0.316 µM, first compound 0.0316 µM
# [14] = second compound 0.316 µM, first compound 0.1 µM
# [15] = second compound 0.316 µM, first compound 0.316 µM
# [16] = second compound 0.316 µM, first compound 1 µM
# [17] = second compound 0.316 µM, first compound 3.16 µM
# [18] = second compound 0.316 µM, first compound 10 µM
# [19] = second compound 1 µM, first compound 0.0316 µM
# [20] = second compound 1 µM, first compound 0.1 µM
# [21] = second compound 1 µM, first compound 0.316 µM
# [22] = second compound 1 µM, first compound 1 µM
# [23] = second compound 1 µM, first compound 3.16 µM
# [24] = second compound 1 µM, first compound 10 µM
# [25] = second compound 3.16 µM, first compound 0.0316 µM
# [26] = second compound 3.16 µM, first compound 0.1 µM
# [27] = second compound 3.16 µM, first compound 0.316 µM
# [28] = second compound 3.16 µM, first compound 1 µM
# [29] = second compound 3.16 µM, first compound 3.16 µM
# [30] = second compound 3.16 µM, first compound 10 µM
# [31] = second compound 10 µM, first compound 0.0316 µM
# [32] = second compound 10 µM, first compound 0.1 µM
# [33] = second compound 10 µM, first compound 0.316 µM
# [34] = second compound 10 µM, first compound 1 µM
# [35] = second compound 10 µM, first compound 3.16 µM
# [36] = second compound 10 µM, first compound 10 µM
# 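Also: spheroids exposed to the agents for 7 days.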
# 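For viability, T/C in this document: 100% = DMSO vehicle control viability.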
smiles,measurement,setting,value
C=CCn1c(=O)c2cnc(Nc3ccc(N4CCN(C)CC4)cc3)nc2n1-c1cccc(C(C)(C)O)n1 + CN(C)c1ccc(Nc2c3ccc(NC(=O)CCN4CCCC4)cc3nc3cc(NC(=O)CCN4CCCC4)ccc23)cc1,IC50,second compound 0.0316 µM,2100 nM
same,IC50,second compound 0.1 µM,2160 nM
same,IC50,second compound 0.316 µM,6680 nM
same,IC50,second compound 1 µM,2860 nM
same,IC50,second compound 3.16 µM,2420 nM
same,IC50,second compound 10 µM,5060 nM
same,"viability, T/C",[1],104%
same,"viability, T/C",[2],93%
same,"viability, T/C",[3],91.8%
same,"viability, T/C",[4],74.4%
same,"viability, T/C",[5],35.5%
same,"viability, T/C",[6],31.7%
same,"viability, T/C",[7],95.8%
same,"viability, T/C",[8],85.2%
same,"viability, T/C",[9],89.1%
same,"viability, T/C",[10],67.5%
same,"viability, T/C",[11],41.2%
same,"viability, T/C",[12],25.6%
same,"viability, T/C",[13],101%
same,"viability, T/C",[14],73.8%
same,"viability, T/C",[15],86.5%
same,"viability, T/C",[16],71.9%
same,"viability, T/C",[17],84.2%
same,"viability, T/C",[18],31.8%
same,"viability, T/C",[19],83.1%
same,"viability, T/C",[20],72%
same,"viability, T/C",[21],82.1%
same,"viability, T/C",[22],75.8%
same,"viability, T/C",[23],47.5%
same,"viability, T/C",[24],26.4%
same,"viability, T/C",[25],74.3%
same,"viability, T/C",[26],85.9%
same,"viability, T/C",[27],88%
same,"viability, T/C",[28],68.5%
same,"viability, T/C",[29],45.1%
same,"viability, T/C",[30],33.3%
same,"viability, T/C",[31],66.1%
same,"viability, T/C",[32],92.8%
same,"viability, T/C",[33],111%
same,"viability, T/C",[34],74.2%
same,"viability, T/C",[35],58.5%
same,"viability, T/C",[36],39.9%
CC(=O)O[C@H]1C(=O)[C@@]2(C)[C@H]([C@H](OC(=O)c3ccccc3)[C@]3(O)C[C@H](OC(=O)[C@H](O)[C@@H](NC(=O)c4ccccc4)c4ccccc4)C(C)=C1C3(C)C)[C@]1(OC(C)=O)CO[C@@H]1C[C@@H]2O + Cc1cnc(CNC(=O)c2c(=O)c3ccc(N4CCCN(C)CC4)nc3n3c2sc2ccccc23)cn1,IC50,second compound 0.0316 µM,51.4 nM
same,IC50,second compound 0.1 µM,95.7 nM
same,IC50,second compound 0.316 µM,165 nM
same,IC50,second compound 1 µM,> 10000 nM
same,IC50,second compound 3.16 µM,5210 nM
same,IC50,second compound 10 µM,> 10000 nM
same,"viability, T/C",[1],63.1%
same,"viability, T/C",[2],32.2%
same,"viability, T/C",[3],25.2%
same,"viability, T/C",[4],32.1%
same,"viability, T/C",[5],26.9%
same,"viability, T/C",[6],21.2%
same,"viability, T/C",[7],79.2%
same,"viability, T/C",[8],48.2%
same,"viability, T/C",[9],33.7%
same,"viability, T/C",[10],18.4%
same,"viability, T/C",[11],21.3%
same,"viability, T/C",[12],32.4%
same,"viability, T/C",[13],72.4%
same,"viability, T/C",[14],56.4%
same,"viability, T/C",[15],40.7%
same,"viability, T/C",[16],47.4%
same,"viability, T/C",[17],35%
same,"viability, T/C",[18],43.5%
same,"viability, T/C",[19],63%
same,"viability, T/C",[20],72.2%
same,"viability, T/C",[21],43.9%
same,"viability, T/C",[22],60.5%
same,"viability, T/C",[23],73.5%
same,"viability, T/C",[24],47.7%
same,"viability, T/C",[25],68.7%
same,"viability, T/C",[26],72.8%
same,"viability, T/C",[27],62.6%
same,"viability, T/C",[28],66%
same,"viability, T/C",[29],50.9%
same,"viability, T/C",[30],45.2%
same,"viability, T/C",[31],62.4%
same,"viability, T/C",[32],49.4%
same,"viability, T/C",[33],60%
same,"viability, T/C",[34],69.7%
same,"viability, T/C",[35],57%
same,"viability, T/C",[36],60.2%
